Earlier results, collected in US20220079925A1, “COMPOSITIONS COMPRISING TACROLIMUS FOR THE TREATMENT OF INTRAOCULAR INFLAMMATORY EYE DISEASES” (NOVALIQ GMBH, priority 2016, published 2022).

What was measured:
[1] = topical administration
T-lymphocyte = conditions: inhibiting T-lymphocyte signal transduction and cell proliferation

C=CC[C@@H]1/C=C(\C)C[C@H](C)C[C@H](OC)[C@H]2O[C@@](O)(C(=O)C(=O)N3CCCC[C@H]3C(=O)O[C@H](/C(C)=C/[C@@H]3CC[C@@H](O)[C@H](OC)C3)[C@H](C)[C@@H](O)CC1=O)[C@H](C)C[C@@H]2OC [Tacrolimus]
ability to penetrate tissue barrier [1]: poor | potency relative to cyclosporine (T-lymphocyte): 100 times
